Experiment [1] can be described thus: DPPH free radical scavenging activity. The following applies: DPPH 0.1 mM, absorbance at 517 nm; triplicate, mean ± SD. As to the method: The capacity to scavenge the stable free radical 2,2-diphenyl-1-picrylhydrazyl (DPPH) was monitored according to the Blois method. The test samples (10–100 μL) were mixed with 1 mL of DPPH (0.1 mM) solution and filled up with methanol to a final volume of 4 mL. Absorbance of the resulting solution was measured at 517 nm in a visible spectrophotometer (Model 166, Systronics, India). The free radical scavenging rate of the reaction solution was calculated as a percentage (%) of DPPH decolouration using the equation (1) I(%)=(Ablank−Asample/Ablank)×100, where A blank is the absorbance of the control reaction mixture excluding the test compounds, and A sample is the absorbance of the test compounds. Radical scavenging potential was expressed as IC50 value, which represents the sample concentration at which 50% of the DPPH radicals were scavenged. Tests were carried out in triplicate and the results were expressed as mean values ± standard deviations.
DPPH radical scavenging activity evaluation is a standard assay in antioxidant activity studies and offers a rapid technique for screening the radical scavenging activity of specific compounds [24]. The free radical scavenging activity of newly synthesized compounds was tested by their ability to bleach the stable radical DPPH. The activity was monitored by following the absorption at 517 nm in a visible spectrophotometer. In the presence of any free radical scavenger, this odd electron pairs up and causes the diminishing of absorption band which is proportional to the number of electrons taken up. The activity was studied at different concentrations for each compound. […] Resulting from a color change from purple to yellow the absorbance decreased when the antioxidant molecule can quench DPPH free radical through donation of hydrogen atom or by electron donating to form a stable DPPH molecule.

The target in experiment [2] is T1, bovine serum albumin (BSA) (Bos taurus, UniProt P02769).
T1 construct: Bovine serum albumin (BSA), one of the major components in plasma protein; purchased Sigma Aldrich Bangalore
In words: energy transfer from BSA to compound (Forster theory). The experiment is classed as binding. The following applies: for J (spectral overlap): BSA emission / compound UV absorption; for R 0 (critical energy transfer distance): K^2 = 2/3, N = 1.311, Φ = 0.118. The source says:
The binding distance (r) between a protein residue (donor) and a bound drug molecule (acceptor) can be calculated from Foster's nonradiative energy transfer theory. The efficiency of energy transfer E and the distance between the acceptor and donor r can be defined as the following equation [36]: (4) E=1−(F/F0)=R06/R06+r^6, where r is the distance between the acceptor and donor; F and F 0 are the fluorescence intensities of BSA in the presence of and in the absence of quencher, respectively; R 0 is the critical energy transfer distance when the transfer efficiency is 50%. It is given by the following equation: (5) R06=8.8×10^−25K^2N^−4ΦJ.
K ^2 is a factor describing the spatial orientation factor related to the geometry of the donor and acceptor of dipoles; N is the refractive index of medium; Φ is the fluorescence quantum yield of the donor in the absence of acceptor; J is the effect of spectra overlap between the fluorescence emission spectrum of the donor and the UV-vis absorption spectrum of the acceptor, and J can be calculated by (6): (6) J=f(λ)ε(λ)λ^4Δλ/ΣF(λ)Δλ, where F(λ) is the corrected fluorescence intensity of the donor in the wavelength range from λ to λ + Δλ and ε(λ) is the molar absorption coefficient of the acceptor at wavelength λ. In the present case, K ^2 = 2/3, N = 1.311, and Φ = 0.118 for BSA molecules, respectively.

In another experiment the test system is A. niger. The experiment can be described thus: minimum inhibitory concentration by dilution method. The class given is cell-based. As to the method:
[The procedure below names another organism; the source lists this organism under the same test.] (§1) The in vitro antimicrobial screening effects of the compounds (3 and 5a–j) were individually tested against a panel of bacteria and fungi including Staphylococcus aureus (NCIM 5021), Bacillus subtilis (NCIM 2999), Pseudomonas aeruginosa (NCIM 5029), Escherichia coli (NCIM 2574), Candida. albicans (NCIM 3471), and Aspergillus flavus (NCIM 524). Microbial strains were cultured overnight at 37°C in nutrient and potato dextrose agar medium. All the pure microbial strains were obtained from National Chemical Laboratory (NCL), Pune, India.
(§2) The minimum inhibitory concentration of the synthesized compounds was determined by dilution method. The compounds were dissolved and then diluted using DMSO; two-fold serial concentrations of the compounds were employed to determine the MIC. In this method, the test concentrations of chemically synthesized compounds were made from 5 to 125 μg/mL.

For experiment [3], the system named is Bacillus subtilis (NCIM 2999). The description is as above. The class given is cell-based. The following applies: Bacillus subtilis, NCIM2999. Here is the method: as §1, §2
Experiment [4] deals with Staphylococcus aureus (NCIM 5021). Described as above. The experiment is classed as cell-based. As to the method:
as §1, §2

For experiment [5], the system named is Escherichia coli (NCIM 2574). The experiment is described as above. The class given is cell-based. The following applies: Escherichia coli, NCIM2574. As to the method:
as §1, §2

The subject of experiment [6] is Pseudomonas aeruginosa (NCIM 5029). Described as above. The class given is cell-based. To be noted: Pseudomonas aeruginosa, NCIM5029. As to the method:
as §1, §2

In experiment [7] the test system is Aspergillus flavus (NCIM 524). Described as above. The following applies: Aspergillus flavus, NCIM524. The experiment is classed as cell-based. Here is the method: as §1, §2
The mark [8] stands for this setting: Staphylococcus aureus, NCIM5021.

Each structure is given as a SMILES string. In brackets after ≈: the same amount, converted by molar mass. Several values for one entry are separate records, joined by “and”; a condition that tells them apart may be missing. Equal entries are not always repeated. A value given as a limit tells only on which side of the number the result lay.

T1 sequence (P02769 25-607): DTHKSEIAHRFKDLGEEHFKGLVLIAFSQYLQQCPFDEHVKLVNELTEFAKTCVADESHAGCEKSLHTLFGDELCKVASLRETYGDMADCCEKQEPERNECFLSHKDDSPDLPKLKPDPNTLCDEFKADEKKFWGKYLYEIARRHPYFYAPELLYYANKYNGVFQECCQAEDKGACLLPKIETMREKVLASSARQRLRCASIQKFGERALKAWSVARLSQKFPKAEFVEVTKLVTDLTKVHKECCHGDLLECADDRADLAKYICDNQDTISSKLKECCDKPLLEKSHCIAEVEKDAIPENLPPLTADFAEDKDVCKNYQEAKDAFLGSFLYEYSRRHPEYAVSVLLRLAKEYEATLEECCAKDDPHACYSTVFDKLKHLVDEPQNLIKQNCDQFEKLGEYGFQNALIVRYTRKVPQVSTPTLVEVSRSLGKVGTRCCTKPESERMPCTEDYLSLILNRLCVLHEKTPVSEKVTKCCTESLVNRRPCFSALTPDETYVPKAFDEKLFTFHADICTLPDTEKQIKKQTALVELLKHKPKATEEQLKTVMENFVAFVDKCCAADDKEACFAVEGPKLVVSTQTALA

As to `CC(=O)N(C(=O)c1ccccc1)c1ccc(N=Cc2cc3ccccc3o2)cc1` [Compound 5c, N-acetyl-N -(4-((benzofuran-2-ylmethylene)amino)phenyl)benzamide], the “IC50 DPPH” value in experiment [1] is on record as 61.7 ± 0.55 µg/mL (≈ 161 µM). In addition, in experiment [2], the “E (efficiency of energy transfer)” value is recorded as 0.14. The “r (binding distance between donor BSA and acceptor)” value in experiment [2] is listed as 4.11 nm. In addition, the “J (spectral overlap)” value in experiment [2] was 3.05 × 10^−14 cm^3 L mol^−1. The “R 0 (critical energy transfer distance)” value in experiment [2] was 3.04 nm. Also, the minimal inhibitory concentration (MIC) – broadly, the smallest concentration in the dilution series that meets the test's criterion for growth inhibition – in the experiment with A. niger (Aspergillus niger) is 40 µg/mL (≈ 105 µM); in experiment [3], 35 µg/mL (≈ 91.5 µM); in experiment [4] (setting [8]), 35 µg/mL (≈ 91.5 µM); in experiment [5], 50 µg/mL (≈ 131 µM); in experiment [6], 50 µg/mL (≈ 131 µM); in experiment [7], 40 µg/mL (≈ 105 µM).

With `COc1ccc(C(=O)N(C(C)=O)c2ccc(N=Cc3cc4ccccc4o3)cc2)cc1` [Compound 5i, N-acetyl-N-(4-(benzofuran-2-ylmethyleneamino)phenyl)-4-methoxybenzamide], the “IC50 DPPH” value in experiment [1] stood at 18.5 ± 0.17 µg/mL (≈ 44.9 µM). Further, the “E (efficiency of energy transfer)” value in experiment [2] is 0.33. Further, the “r (binding distance between donor BSA and acceptor)” value in experiment [2] is 3.17 nm. Moreover, the “J (spectral overlap)” value in experiment [2] was 2.79 × 10^−14 cm^3 L mol^−1. Besides, the “R 0 (critical energy transfer distance)” value in experiment [2] is 2.83 nm. Also, the minimum inhibitory concentration (MIC) in the experiment on A. niger (Aspergillus niger) was found to be 35 µg/mL (≈ 84.9 µM); in experiment [3] it was 50 µg/mL (≈ 121 µM); in experiment [4] (setting [8]) it was 40 µg/mL (≈ 97 µM); in experiment [5], 30 µg/mL (≈ 72.7 µM); in experiment [6] it was 35 µg/mL (≈ 84.9 µM); in experiment [7] it was 30 µg/mL (≈ 72.7 µM).

With `CC(=O)N(C(=O)c1cc(F)c(F)c(F)c1)c1ccc(N=Cc2cc3ccccc3o2)cc1` [Compound 5g, N-acetyl-N-(4-(benzofuran-2-ylmethyleneamino)phenyl)-3,4,5-trifluorobenzamide], the “IC50 DPPH” value in experiment [1] was > 100 µg/mL and >125 µg/mL. Moreover, in experiment [2], the “E (efficiency of energy transfer)” value came out at 0.31. The “r (binding distance between donor BSA and acceptor)” value in experiment [2] came to 3.07 nm. Moreover, the “J (spectral overlap)” value in experiment [2] is 2.37 × 10^−14 cm^3 L mol^−1. Further, the “R 0 (critical energy transfer distance)” value in experiment [2] is recorded as 2.86 nm. Moreover, the MIC in the experiment on A. niger (A. niger, dilution method, average of three replicates) stood at 10 µg/mL (≈ 22.9 µM); in the experiment on A. niger (Aspergillus niger) it was 10 µg/mL (≈ 22.9 µM); in experiment [3], 10 µg/mL (≈ 22.9 µM); in experiment [4] (S. aureus, dilution method, average of three replicates), 9.8 µg/mL (≈ 22.5 µM); in experiment [4] (setting [8]), 9.8 µg/mL (≈ 22.5 µM); in experiment [5] it was 12 µg/mL (≈ 27.5 µM). In addition, the MIC in experiment [6] is 10 µg/mL (≈ 22.9 µM); in experiment [7], 15 µg/mL (≈ 34.4 µM).

Consider `CC(=O)N(C(=O)c1ccc(O)cc1)c1ccc(N=Cc2cc3ccccc3o2)cc1` [Compound 5j, N-acetyl-N-(4-((benzofuran-2-ylmethylene)amino)phenyl)-4-hydroxybenzamide], for which the “IC50 DPPH” value in experiment [1] came out at 15.3 ± 0.11 µg/mL (≈ 38.4 µM). Also, in experiment [2], the “E (efficiency of energy transfer)” value was 0.14. Also, the “r (binding distance between donor BSA and acceptor)” value in experiment [2] stood at 4.09 nm. Further, in experiment [2], the “J (spectral overlap)” value is given as 4.26 × 10^−14 cm^3 L mol^−1. For the same compound, the “R 0 (critical energy transfer distance)” value in experiment [2] amounted to 3.02 nm. The minimum inhibitory concentration (MIC) was determined as 40 µg/mL (≈ 100 µM) with A. niger (Aspergillus niger); 35 µg/mL (≈ 87.8 µM) in experiment [3]; 35 µg/mL (≈ 87.8 µM) in experiment [4] (setting [8]); 50 µg/mL (≈ 125 µM) in experiment [5]; 50 µg/mL (≈ 125 µM) in experiment [6]; 40 µg/mL (≈ 100 µM) in experiment [7].

Regarding `CC(=O)N(C(=O)c1cc(F)ccc1F)c1ccc(N=Cc2cc3ccccc3o2)cc1` [Compound 5a, N-acetyl-N-(4-((benzofuran-2-ylmethylene)amino)phenyl)-2,5-difluorobenzamide], the “IC50 DPPH” value in experiment [1] was determined as 97.5 ± 0.37 µg/mL (≈ 233 µM). Moreover, the “E (efficiency of energy transfer)” value in experiment [2] came out at 0.11. Also, the “r (binding distance between donor BSA and acceptor)” value in experiment [2] is 3.77 nm. The “J (spectral overlap)” value in experiment [2] is given as 1.05 × 10^−14 cm^3 L mol^−1. Further, in experiment [2], the “R 0 (critical energy transfer distance)” value is on record as 2.51 nm. In addition, the MIC was determined as 15 µg/mL (≈ 35.9 µM) with A. niger (Aspergillus niger); 12 µg/mL (≈ 28.7 µM) in experiment [3]; 12 µg/mL (≈ 28.7 µM) in experiment [4] (setting [8]); 25 µg/mL (≈ 59.8 µM) in experiment [5]; 25 µg/mL (≈ 59.8 µM) in experiment [6]; 15 µg/mL (≈ 35.9 µM) in experiment [7].

For `CC(=O)N(C(=O)c1cc(F)cc(F)c1)c1ccc(N=Cc2cc3ccccc3o2)cc1` [Compound 5h, N-acetyl-N-(4-((benzofuran-2-ylmethylene)amino)phenyl)-3,5-difluorobenzamide], the “IC50 DPPH” value in experiment [1] was > 100 µg/mL and 100 ± 0.19 µg/mL. The “E (efficiency of energy transfer)” value in experiment [2] came to 0.15. The “r (binding distance between donor BSA and acceptor)” value in experiment [2] is recorded as 2.93 nm. In addition, in experiment [2], the “J (spectral overlap)” value is on record as 4.91 × 10^−14 cm^3 L mol^−1. In experiment [2], the “R 0 (critical energy transfer distance)” value amounted to 2.16 nm. Further, the MIC in the experiment with A. niger (Aspergillus niger) was 10 µg/mL (≈ 23.9 µM); in experiment [3], 12.4 µg/mL (≈ 29.6 µM); in experiment [4] (setting [8]), 12.4 µg/mL (≈ 29.6 µM); in experiment [5], 25 µg/mL (≈ 59.8 µM); in experiment [6] it was 25 µg/mL (≈ 59.8 µM); in experiment [7] it was 15 µg/mL (≈ 35.9 µM).

For the origin of these results see article PMC3767324, “Synthesis, Characterization, and BSA Binding Studies of Some New Benzamides Related to Schiff Base” (ISRN Organic Chemistry, 2013).
